From PubChem BioAssay AID1259407 (Chemical Carcinogenesis Research Information System (CCRIS), 2018)
The source made the active and inactive calls. No rule for the calls is given here.

Test system: CCRIS mutagenicity, Ames/micronucleus/aberration tests
Assay: CCRIS mutagenicity studies
[1] = Test System: AMES SALMONELLA TYPHIMURIUM, Strain/Indicator: TA100, Metabolic Activation: NONE, Method: PREINCUBATION

CC1COc2c(N3CCN(C)CC3)c(F)cc3c(=O)c(C(=O)O)cn1c23 (stereo not given)
mutagenic call (End Point: AMES SALMONELLA TYPHIMURIUM, Test System: TA98, Metabolic Activation: NONE, Method: STANDARD PLATE): active; positive | mutagenic call (End Point: AMES SALMONELLA TYPHIMURIUM, Test System: TA100, Metabolic Activation: NONE, Method: STANDARD PLATE): inactive; negative | mutagenic call (Test System: AMES SALMONELLA TYPHIMURIUM, Strain/Indicator: HISG428, Metabolic Activation: NONE, Method: STANDARD PLATE): inactive; negative | mutagenic call (Test System: AMES SALMONELLA TYPHIMURIUM, Strain/Indicator: TA92, Metabolic Activation: NONE, Method: STANDARD PLATE): active; positive | mutagenic call (Test System: AMES SALMONELLA TYPHIMURIUM, Strain/Indicator: TA102, Metabolic Activation: NONE, Method: STANDARD PLATE): active; positive | mutagenic call (Test System: AMES SALMONELLA TYPHIMURIUM, Strain/Indicator: TA103, Metabolic Activation: NONE, Method: STANDARD PLATE): active; positive | mutagenic call (Test System: AMES SALMONELLA TYPHIMURIUM, Strain/Indicator: TA104, Metabolic Activation: NONE, Method: STANDARD PLATE): inactive; negative | mutagenic call (Test System: AMES SALMONELLA TYPHIMURIUM, Strain/Indicator: TA2638, Metabolic Activation: NONE, Method: STANDARD PLATE): active; positive | mutagenic call (Test System: AMES SALMONELLA TYPHIMURIUM, Strain/Indicator: TA2661, Metabolic Activation: NONE, Method: STANDARD PLATE): inactive; negative | mutagenic call (Test System: AMES SALMONELLA TYPHIMURIUM, Strain/Indicator: TA2662, Metabolic Activation: NONE, Method: STANDARD PLATE): active; positive | mutagenic call (Test System: AMES SALMONELLA TYPHIMURIUM, Strain/Indicator: TA2678, Metabolic Activation: NONE, Method: STANDARD PLATE): inactive; negative | mutagenic call (Test System: CHINESE HAMSTER V-79, Strain/Indicator: V-79 (HPRT)/6-THIOGUANINE, Metabolic Activation: NONE): inactive; negative | mutagenic call (Test System: MOUSE LYMPHOMA, Strain/Indicator: L5178Y (HPRT)/6-THIOGUANINE, Metabolic Activation: NONE, Method: FLUCTUATION TEST): inactive; negative | mutagenic call (Test System: MOUSE LYMPHOMA, Strain/Indicator: L5178Y (TK+/TK-), Metabolic Activation: NONE, Method: FLUCTUATION TEST): inactive; negative

N[C@@H](CCC(=O)N[C@@H](CSc1ccc([N+](=O)[O-])cc1[N+](=O)[O-])C(=O)NCC(=O)O)C(=O)O
mutagenic call (Test System: AMES SALMONELLA TYPHIMURIUM, Strain/Indicator: TA100(NR), Metabolic Activation: NONE, Method: PREINCUBATION): inactive; negative | mutagenic call (Test System: AMES SALMONELLA TYPHIMURIUM, Strain/Indicator: TA100/GSH-, Metabolic Activation: NONE, Method: PREINCUBATION): active; positive | mutagenic call [1]: inactive; negative

CC(NC(=O)COc1ccc(Cl)cc1Cl)C(=O)O (stereo not given)
mutagenic call (Test System: AMES SALMONELLA TYPHIMURIUM, Strain/Indicator: TA97, Metabolic Activation: RAT, LIVER, S-9, AROCLOR 1254, Method: STANDARD PLATE): inactive; negative | mutagenic call (Test System: AMES SALMONELLA TYPHIMURIUM, Strain/Indicator: TA97, Metabolic Activation: WOODCHUCK, LIVER, S-9, 3-METHYLCHOLANTHRENE, Method: STANDARD PLATE): inactive; negative | mutagenic call (Test System: AMES SALMONELLA TYPHIMURIUM, Strain/Indicator: TA98, Metabolic Activation: RAT, LIVER, S-9, AROCLOR 1254, Method: STANDARD PLATE): inactive; negative | mutagenic call (Test System: AMES SALMONELLA TYPHIMURIUM, Strain/Indicator: TA98, Metabolic Activation: WOODCHUCK, LIVER, S-9, 3-METHYLCHOLANTHRENE, Method: STANDARD PLATE): inactive; negative | mutagenic call (Test System: AMES SALMONELLA TYPHIMURIUM, Strain/Indicator: TA100, Metabolic Activation: RAT, LIVER, S-9, AROCLOR 1254, Method: STANDARD PLATE): inactive; negative | mutagenic call (Test System: AMES SALMONELLA TYPHIMURIUM, Strain/Indicator: TA100, Metabolic Activation: WOODCHUCK, LIVER, S-9, 3-METHYLCHOLANTHRENE, Method: STANDARD PLATE): inactive; negative | mutagenic call (Test System: AMES SALMONELLA TYPHIMURIUM, Strain/Indicator: TA1535, Metabolic Activation: RAT, LIVER, S-9, AROCLOR 1254, Method: STANDARD PLATE): inactive; negative | mutagenic call (Test System: AMES SALMONELLA TYPHIMURIUM, Strain/Indicator: TA1535, Metabolic Activation: WOODCHUCK, LIVER, S-9, 3-METHYLCHOLANTHRENE, Method: STANDARD PLATE): inactive; negative | mutagenic call (Test System: AMES SALMONELLA TYPHIMURIUM, Strain/Indicator: TA1538, Metabolic Activation: RAT, LIVER, S-9, AROCLOR 1254, Method: STANDARD PLATE): inactive; negative | mutagenic call (Test System: AMES SALMONELLA TYPHIMURIUM, Strain/Indicator: TA1538, Metabolic Activation: WOODCHUCK, LIVER, S-9, 3-METHYLCHOLANTHRENE, Method: STANDARD PLATE): inactive; negative

CCOP(=O)(OCC)Oc1ccc([N+](=O)[O-])cc1
mutagenic call (End Point: IN VITRO MICRONUCLEUS, Test System: HUMAN NEWBORN UMBILICAL CORD BLOOD, Metabolic Activation: NONE): active; positive only at highest dose | mutagenic call (End Point: IN VITRO MICRONUCLEUS, Test System: HUMAN PERIPHERAL LYMPHOCYTES (MALE/FEMALE ADULT), Metabolic Activation: NONE): active; positive only at highest dose | mutagenic call (End Point: In vitro micronucleus, Test System: Human peripheral blood lymphocytes, Metabolic Activation: None): active; positive. pon1 qq, but not pon1 rr individuals exhibited significant increase in | mutagenic call (Test System: AMES SALMONELLA TYPHIMURIUM, Strain/Indicator: TA98, Metabolic Activation: NONE, Method: STANDARD PLATE): active; positive | mutagenic call (Test System: AMES SALMONELLA TYPHIMURIUM, Strain/Indicator: TA98, Metabolic Activation: RAT, LIVER, S-9, Method: STANDARD PLATE): active; positive | mutagenic call (Test System: AMES SALMONELLA TYPHIMURIUM, Strain/Indicator: TA100, Metabolic Activation: NONE, Method: STANDARD PLATE): inactive; negative | mutagenic call (Test System: AMES SALMONELLA TYPHIMURIUM, Strain/Indicator: TA100, Metabolic Activation: RAT, LIVER, S-9, Method: STANDARD PLATE): active; positive

C=C(C)C(=O)OC(C)C
mutagenic call (Test System: AMES SALMONELLA TYPHIMURIUM, Strain/Indicator: TA98, Metabolic Activation: HAMSTER, LIVER, S-9, AROCLOR 1254 (10%), Method: PREINCUBATION): inactive; negative | mutagenic call (Test System: AMES SALMONELLA TYPHIMURIUM, Strain/Indicator: TA98, Metabolic Activation: NONE, Method: PREINCUBATION): inactive; negative | mutagenic call (Test System: AMES SALMONELLA TYPHIMURIUM, Strain/Indicator: TA98, Metabolic Activation: RAT, LIVER, S-9, AROCLOR 1254 (10%), Method: PREINCUBATION): inactive; negative | mutagenic call (Test System: AMES SALMONELLA TYPHIMURIUM, Strain/Indicator: TA100, Metabolic Activation: HAMSTER, LIVER, S-9, AROCLOR 1254 (10%), Method: PREINCUBATION): inactive; negative | mutagenic call [1]: inactive; negative | mutagenic call (Test System: AMES SALMONELLA TYPHIMURIUM, Strain/Indicator: TA100, Metabolic Activation: RAT, LIVER, S-9, AROCLOR 1254 (10%), Method: PREINCUBATION): inactive; negative | mutagenic call (Test System: AMES SALMONELLA TYPHIMURIUM, Strain/Indicator: TA1535, Metabolic Activation: HAMSTER, LIVER, S-9, AROCLOR 1254 (10%), Method: PREINCUBATION): inactive; negative | mutagenic call (Test System: AMES SALMONELLA TYPHIMURIUM, Strain/Indicator: TA1535, Metabolic Activation: NONE, Method: PREINCUBATION): inactive; negative | mutagenic call (Test System: AMES SALMONELLA TYPHIMURIUM, Strain/Indicator: TA1535, Metabolic Activation: RAT, LIVER, S-9, AROCLOR 1254 (10%), Method: PREINCUBATION): inactive; negative | mutagenic call (Test System: AMES SALMONELLA TYPHIMURIUM, Strain/Indicator: TA1537, Metabolic Activation: HAMSTER, LIVER, S-9, AROCLOR 1254 (10%), Method: PREINCUBATION): inactive; negative | mutagenic call (Test System: AMES SALMONELLA TYPHIMURIUM, Strain/Indicator: TA1537, Metabolic Activation: NONE, Method: PREINCUBATION): inactive; negative | mutagenic call (Test System: AMES SALMONELLA TYPHIMURIUM, Strain/Indicator: TA1537, Metabolic Activation: RAT, LIVER, S-9, AROCLOR 1254 (10%), Method: PREINCUBATION): inactive; negative

O=C([O-])[C@H](O)[C@@H](O)[C@H](O)[C@H](O)CO.O=C([O-])[C@H](O)[C@@H](O)[C@H](O)[C@H](O)CO.[Cu+2]
mutagenic call (Test System: AMES SALMONELLA TYPHIMURIUM, Strain/Indicator: TA97, Metabolic Activation: NONE, Method: PREINCUBATION): inactive; negative | mutagenic call (Test System: AMES SALMONELLA TYPHIMURIUM, Strain/Indicator: TA97, Metabolic Activation: S-9, Method: PREINCUBATION): inactive; negative | mutagenic call (Test System: AMES SALMONELLA TYPHIMURIUM, Strain/Indicator: TA102, Metabolic Activation: NONE, Method: PREINCUBATION): inactive; negative | mutagenic call (Test System: AMES SALMONELLA TYPHIMURIUM, Strain/Indicator: TA102, Metabolic Activation: S-9, Method: PREINCUBATION): inactive; negative
